Data: the NIST ThermoML archive (doi:10.1007/s10765-006-0051-4)
± gives the expanded uncertainty stated by the source.

Assay: xn = mol fraction of the nth substance listed
Conditions: Gas, Oscillating disk viscometry

FC(F)C(F)(F)F [pentafluoroethane] + CCC
Conditions	viscosity [mPa·s]
373.15 K, 3429.9 kPa, x1 = 0.5011	0.01593 ± 0.00052
373.15 K, 3613.1 kPa, x1 = 0.5011	0.01624 ± 0.00053
373.15 K, 3684.6 kPa, x1 = 0.7503	0.01798 ± 0.00057
373.15 K, 3737.3 kPa, x1 = 0.5011	0.01642 ± 0.00054
373.15 K, 3960.9 kPa, x1 = 0.5011	0.01685 ± 0.00055
373.15 K, 3969.4 kPa, x1 = 0.7503	0.01855 ± 0.00059
373.15 K, 4171.6 kPa, x1 = 0.5011	0.0173 ± 0.00056
373.15 K, 4227.4 kPa, x1 = 0.7503	0.01913 ± 0.0006
373.15 K, 4377 kPa, x1 = 0.5011	0.01777 ± 0.00057
373.15 K, 4411 kPa, x1 = 0.7503	0.01964 ± 0.00061
373.15 K, 4576.1 kPa, x1 = 0.5011	0.01833 ± 0.00058
373.15 K, 4607.7 kPa, x1 = 0.7503	0.02019 ± 0.00062
373.15 K, 4760.3 kPa, x1 = 0.5011	0.01889 ± 0.00059
373.15 K, 4816.2 kPa, x1 = 0.7503	0.02092 ± 0.00064
373.15 K, 4878.3 kPa, x1 = 0.5011	0.01931 ± 0.0006
373.15 K, 5001.8 kPa, x1 = 0.7503	0.0217 ± 0.00066
373.15 K, 5157.2 kPa, x1 = 0.7503	0.02229 ± 0.00067
373.15 K, 5305.9 kPa, x1 = 0.7503	0.02305 ± 0.00069
398.15 K, 101.4 kPa, x1 = 0.5011	0.01447 ± 0.00049
398.15 K, 101.8 kPa, x1 = 0.7503	0.01589 ± 0.00052
398.15 K, 200.6 kPa, x1 = 0.5011	0.01454 ± 0.00049
398.15 K, 262.5 kPa, x1 = 0.7503	0.01594 ± 0.00052
398.15 K, 348.4 kPa, x1 = 0.5011	0.01457 ± 0.00049
398.15 K, 488.6 kPa, x1 = 0.7503	0.01602 ± 0.00053
398.15 K, 541 kPa, x1 = 0.5011	0.01463 ± 0.00049
398.15 K, 733.4 kPa, x1 = 0.7503	0.01606 ± 0.00053
398.15 K, 783.2 kPa, x1 = 0.5011	0.01467 ± 0.0005
398.15 K, 977 kPa, x1 = 0.7503	0.01615 ± 0.00053
398.15 K, 1028.7 kPa, x1 = 0.5011	0.01479 ± 0.0005
398.15 K, 1218.3 kPa, x1 = 0.7503	0.01622 ± 0.00053
398.15 K, 1272.7 kPa, x1 = 0.5011	0.01488 ± 0.0005
398.15 K, 1476.6 kPa, x1 = 0.7503	0.01635 ± 0.00053
398.15 K, 1520 kPa, x1 = 0.5011	0.01497 ± 0.0005
398.15 K, 1712.5 kPa, x1 = 0.7503	0.01647 ± 0.00054
398.15 K, 1748.1 kPa, x1 = 0.5011	0.01511 ± 0.00051
398.15 K, 1944.3 kPa, x1 = 0.7503	0.01666 ± 0.00054
398.15 K, 2037 kPa, x1 = 0.5011	0.01521 ± 0.00051
398.15 K, 2176.8 kPa, x1 = 0.7503	0.01672 ± 0.00054
398.15 K, 2274.1 kPa, x1 = 0.5011	0.0154 ± 0.00051
398.15 K, 2388.9 kPa, x1 = 0.7503	0.01694 ± 0.00055
398.15 K, 2490.3 kPa, x1 = 0.5011	0.01548 ± 0.00052
398.15 K, 2622.4 kPa, x1 = 0.7503	0.01715 ± 0.00055
398.15 K, 2777.4 kPa, x1 = 0.5011	0.01568 ± 0.00052
398.15 K, 2888.9 kPa, x1 = 0.7503	0.01734 ± 0.00056
398.15 K, 3059.7 kPa, x1 = 0.5011	0.01592 ± 0.00052
398.15 K, 3178.3 kPa, x1 = 0.7503	0.01765 ± 0.00056
398.15 K, 3336.8 kPa, x1 = 0.5011	0.01626 ± 0.00053
398.15 K, 3405.7 kPa, x1 = 0.7503	0.01794 ± 0.00057
398.15 K, 3609.9 kPa, x1 = 0.5011	0.0165 ± 0.00054
398.15 K, 3624.9 kPa, x1 = 0.7503	0.01817 ± 0.00058
398.15 K, 3822.7 kPa, x1 = 0.7503	0.01844 ± 0.00058
398.15 K, 3842.8 kPa, x1 = 0.5011	0.01681 ± 0.00055
398.15 K, 3992.9 kPa, x1 = 0.7503	0.01868 ± 0.00059
398.15 K, 4062.4 kPa, x1 = 0.5011	0.01705 ± 0.00055
398.15 K, 4225.4 kPa, x1 = 0.7503	0.01902 ± 0.0006
398.15 K, 4329.6 kPa, x1 = 0.5011	0.01744 ± 0.00056
398.15 K, 4523.9 kPa, x1 = 0.7503	0.01947 ± 0.00061
398.15 K, 4652.3 kPa, x1 = 0.5011	0.01792 ± 0.00057
398.15 K, 4690.7 kPa, x1 = 0.7503	0.01983 ± 0.00062
398.15 K, 4804.6 kPa, x1 = 0.7503	0.02002 ± 0.00062
398.15 K, 5014.1 kPa, x1 = 0.5011	0.01853 ± 0.00059
398.15 K, 5040.9 kPa, x1 = 0.7503	0.02051 ± 0.00063
398.15 K, 5179.6 kPa, x1 = 0.5011	0.01885 ± 0.00059
398.15 K, 5224.5 kPa, x1 = 0.7503	0.02087 ± 0.00064
398.15 K, 5374.2 kPa, x1 = 0.5011	0.01934 ± 0.0006
398.15 K, 5462.4 kPa, x1 = 0.7503	0.0215 ± 0.00065
398.15 K, 5801.5 kPa, x1 = 0.7503	0.0224 ± 0.00068
423.15 K, 101.3 kPa, x1 = 0.5011	0.01525 ± 0.00051
423.15 K, 102.4 kPa, x1 = 0.7503	0.01671 ± 0.00054
423.15 K, 194.6 kPa, x1 = 0.7503	0.01672 ± 0.00054
423.15 K, 200.5 kPa, x1 = 0.5011	0.01531 ± 0.00051
423.15 K, 336.4 kPa, x1 = 0.7503	0.01676 ± 0.00054
423.15 K, 390.6 kPa, x1 = 0.5011	0.01537 ± 0.00051
423.15 K, 570.1 kPa, x1 = 0.7503	0.01682 ± 0.00055
423.15 K, 586.2 kPa, x1 = 0.5011	0.01537 ± 0.00051
423.15 K, 781.9 kPa, x1 = 0.5011	0.01543 ± 0.00051
423.15 K, 812.9 kPa, x1 = 0.7503	0.01692 ± 0.00055
423.15 K, 960.2 kPa, x1 = 0.5011	0.01542 ± 0.00051
423.15 K, 1055.8 kPa, x1 = 0.7503	0.01696 ± 0.00055
423.15 K, 1175.7 kPa, x1 = 0.5011	0.01552 ± 0.00052
423.15 K, 1254.9 kPa, x1 = 0.7503	0.01706 ± 0.00055
423.15 K, 1421.7 kPa, x1 = 0.5011	0.01565 ± 0.00052
423.15 K, 1448.9 kPa, x1 = 0.7503	0.01715 ± 0.00055
423.15 K, 1640 kPa, x1 = 0.7503	0.01724 ± 0.00056
423.15 K, 1658.8 kPa, x1 = 0.5011	0.01573 ± 0.00052
423.15 K, 1898.5 kPa, x1 = 0.5011	0.01584 ± 0.00052
423.15 K, 1906.4 kPa, x1 = 0.7503	0.0174 ± 0.00056
423.15 K, 2128.2 kPa, x1 = 0.7503	0.01752 ± 0.00056
423.15 K, 2142.2 kPa, x1 = 0.5011	0.01598 ± 0.00053
423.15 K, 2375.9 kPa, x1 = 0.7503	0.01766 ± 0.00056
423.15 K, 2381.7 kPa, x1 = 0.5011	0.01613 ± 0.00053
423.15 K, 2575.8 kPa, x1 = 0.5011	0.01623 ± 0.00053
423.15 K, 2591.5 kPa, x1 = 0.7503	0.01781 ± 0.00057
423.15 K, 2903.1 kPa, x1 = 0.5011	0.01643 ± 0.00054
423.15 K, 2919.3 kPa, x1 = 0.7503	0.01808 ± 0.00057
423.15 K, 3148.8 kPa, x1 = 0.5011	0.01663 ± 0.00054
423.15 K, 3160.1 kPa, x1 = 0.7503	0.01824 ± 0.00058
423.15 K, 3289.3 kPa, x1 = 0.7503	0.01836 ± 0.00058
423.15 K, 3412.8 kPa, x1 = 0.5011	0.01685 ± 0.00055
423.15 K, 3552.1 kPa, x1 = 0.7503	0.01859 ± 0.00059
423.15 K, 3651.4 kPa, x1 = 0.5011	0.01705 ± 0.00055
423.15 K, 3813.6 kPa, x1 = 0.7503	0.01886 ± 0.00059
423.15 K, 3903.9 kPa, x1 = 0.5011	0.01729 ± 0.00056
423.15 K, 4061.5 kPa, x1 = 0.7503	0.01916 ± 0.0006
423.15 K, 4138.6 kPa, x1 = 0.5011	0.01756 ± 0.00056
423.15 K, 4298.5 kPa, x1 = 0.7503	0.01944 ± 0.00061
423.15 K, 4492.6 kPa, x1 = 0.7503	0.01962 ± 0.00061
423.15 K, 4533.7 kPa, x1 = 0.5011	0.01792 ± 0.00057
423.15 K, 4689.8 kPa, x1 = 0.7503	0.01988 ± 0.00062
423.15 K, 4822.7 kPa, x1 = 0.5011	0.01823 ± 0.00058
423.15 K, 4902.5 kPa, x1 = 0.7503	0.02023 ± 0.00063
423.15 K, 5070 kPa, x1 = 0.7503	0.02042 ± 0.00063
423.15 K, 5073.7 kPa, x1 = 0.5011	0.01858 ± 0.00059
423.15 K, 5285.8 kPa, x1 = 0.7503	0.02077 ± 0.00064
423.15 K, 5357.3 kPa, x1 = 0.5011	0.01897 ± 0.0006
423.15 K, 5493.3 kPa, x1 = 0.7503	0.02108 ± 0.00064
423.15 K, 5672.2 kPa, x1 = 0.7503	0.02139 ± 0.00065
423.15 K, 5701.1 kPa, x1 = 0.5011	0.01947 ± 0.00061
423.15 K, 5887.3 kPa, x1 = 0.7503	0.02175 ± 0.00066
423.15 K, 6049.1 kPa, x1 = 0.5011	0.02 ± 0.00062
423.15 K, 6270.6 kPa, x1 = 0.5011	0.02038 ± 0.00063
423.15 K, 6494.5 kPa, x1 = 0.5011	0.0208 ± 0.00064
423.15 K, 6710.2 kPa, x1 = 0.5011	0.02129 ± 0.00065
